Legend:
[1] = test system: AML2 SRSF2 (P95H) mutant cell line; assay: Cell viability assay (CellTiter-Glo), drug screen and dose response; format: cell-based, human; details: validation and dose response after primary screen, 48 hours
From the text: (§1) Compound Libraries: Three commercial libraries were used in the screening process: the Bioactive library (New Selleck Collection 2020, n=3727), the Kinom Set (n=187), and the Epigenetic chemical probe library (Structural Genomics Consortium, n=97).
(§2) Cell viability assay: Compounds were dispensed in 384-well plates using an ECHO® 555 liquid handler (Labcyte) and sealed. On day of experiment, the concentrations of isogenic and respective wildtype cell lines were counted using a Countess™ II FL (Invtrogen™) and re-suspended at 40,000 cell/ml. 50 μL of medium was dispensed using a Multidrop™ Combi Reagent Dispenser (Thermo Fisher), bringing the total number of cells in each well to 2000. Cells were incubated for 48 hours. On day of measurement, plates were centrifuged and supernatant was removed using a Washer/Dispenser II (GNF Systems). A Washer/Dispenser II was then used to dispense CellTiter-Glo® (G7572, Promega) as per the manufacturer's instructions. The luminescence signal was then measured using a PHERAstar® FSX (BMG Labtech) and results were analyzed using Genedata Screener®. The viability of treated cells was normalized to a vehicle control, contained on each plate.
(§3) Next, a sensitivity screening of […] chemical compounds from three commercial libraries: the Bioactive collection (New Selleck Collection 2020, n=3727), the Kinom Set (n=187), and the Epigenetic chemical probe library (Structural Genomics Consortium, n=97) was carried out on the isogenic cell lines. Following a primary screen, compounds with higher cytotoxic efficacy in the mutant versus WT cells were chosen for further validation and dose response analysis. Both mutant MOLM14 and AML2 cell lines responded to various ROCK inhibitors (ROCKi), including, GSK429286A, GSK180736A, Y-39983 and specifically to RKI-1447.

[2] = test system: MOLM14 SRSF2 (P95H) mutant cell line; assay: as above; format: cell-based, human; details: validation and dose response after primary screen, 48 hours
From the text: as §1, §2, §3

[3] = test system: MOLM14 SRSF2 mutant cell line; assay: Cell cycle analysis after RKI-1447; format: cell-based, human
SRSF2 mutated AML = assay: AML-PDX models with SRSF2 mutations in NSG mice; format: in vivo; details: two AML-PDX samples; 3 weeks of treatment from day 35; versus carrier control
Experimental: To evaluate whether SRSF2 mutated AML is sensitive to RKI-1447, the present inventors studied its effect in vivo with cell line and patient-derived xenograft model of AML. […] Two AML-PDX models with SRSF2 mutations were established that recapitulate the disease in vivo. NSG mice (n=5-10/sample) were injected with one to five million CD3− cells from two patients with SRSF2 mutated AML through femur. On day 35 the animals were randomized to RKI-1447 or a carrier control. Following 3 weeks of treatment week, engraftment of AML cells in BM was evaluated using flow cytometry. Both lymphoid (CD19+ B cells) and myeloid lineages (CD45dimCD33+) are detected, but dominantly are myeloid graft, in our AML-PDX models. […] To determine the grafts origin from srsf2 mutated LSC/ pre-leukaemic HSCs, human cells (CD45+) were isolated from the total BM cells and amplicon sequence of SRSF2 was performed.

[4] = test system: MOLM14 wild type cell line; assay: Cell cycle analysis after RKI-1447; format: cell-based, human; details: 0.5 μM RKI-1447 compared to untreated control
From the text: (§4) Rho-associated protein kinases (ROCKs or Rho kinases) are key regulators of the actin cytoskeleton and are required for separating cells' duplicated genetic material during cell division to ensure proper partitioning of DNA in to daughter cells. Actin is also linked to RNA polymerase function and associated with many heterogeneous nuclear ribonucleoproteins, and may thus act to affect pre-mRNA processing and regulate transcription. Given this knowledge of ROCKs and actin, it was hypothesized that disrupting the function of ROCKs will result in cell cycle and RNA splicing alteration. In order to test this hypothesis, RNA sequencing and proteomics were performed on isogenic lines prior to and following exposure to RKI-1447. […] One of the significant up regulated protein is CDC20. CDC20 is an activator of anaphase-promoting complex/cyclosome (APC/C), and APC/Cdc 20 activity is critical for metaphase/anaphase transition.

[5] = test system: isogenic SRSF2 mutant and wild-type cell lines; assay: RNA sequencing and proteomics with pre ranked GSEA before and after RKI-1447; format: cell-based, human; details: both mutant and wild-type cells after exposure to RKI-1447
From the text: as §4

SRSF2 mutant cells = assay: Nuclear morphology and microtubule structure by confocal microscopy; format: cell-based, human; details: SRSF2 mutant cells following RKI-1447 treatment
From the text: The nuclear morphology and microtubule structure of SRSF2 mutant cells was examined by confocal microscopy following RKI-1447 treatment. […] The surface area of the nucleus of mutant cells was considerably bigger than that of WT cells, and the sphericity was reduced (FIGS. 5B-D).

[6] = test system: MOLM14 SRSF2 mutant cells; assay: MOLM14 cell line xenograft model of AML in NSG mice; format: in vivo; details: NSG mice transplanted with MOLM14 cell line model; compared to the control
[7] = 0.5 μM RKI-1447 compared to untreated control, MOLM14 SRSF2 mutant

Row | SMILES | response of mutant cell line to ROCK inhibitor (cytotoxic efficacy mutant versus WT) [1] | response of mutant cell line to ROCK inhibitor (cytotoxic efficacy mutant versus WT) [2] | cell cycle difference in MOLM14 SRSF2 mutant relative to wild type ([3]; 0.5 μM RKI-1447, P<0.01) | percentage of G0/G1 phase cells [3, 7] | percentage of G2/M and S phase cells [3, 7] | engraftment rate of AML cells in BM (flow cytometry) (SRSF2 mutated AML) | percentage of G0/G1 phase cells [4] | percentage of G2/M and S phase cells [4] | pre ranked GSEA, regulated pathways [5] | apoptosis (SRSF2 mutant cells) | nuclear morphology (SRSF2 mutant cells) | engraftment (number of CD45+ cells) [6]
1 | CC1=C(C(=O)Nc2ccc3[nH]ncc3c2)C(c2ccc(F)cc2)NC(=O)N1 (stereo not drawn) [GSK180736A] | responded | responded |  |  |  |  |  |  |  |  |  | 
2 | O=C(NCc1cccc(O)c1)Nc1nc(-c2ccncc2)cs1 [RKI-1447] | responded | responded | more pronounced | decrease in the percentage | higher percentage | significant lower engraftment rate | decrease in the percentage | higher percentage | cell cycle is one of the most significantly up-regulated pathways | apoptosis | nucleus invagination and deformations | significant decrease of engraftment
3 | CC1=C(C(=O)Nc2cc3cn[nH]c3cc2F)C(c2ccc(C(F)(F)F)cc2)CC(=O)N1 (stereo not drawn) [GSK429286A] | responded | responded |  |  |  |  |  |  |  |  |  | 
4 | C[C@@H](N)c1ccc(C(=O)Nc2ccnc3[nH]ccc23)cc1 [Y-39983] | responded | responded |  |  |  |  |  |  |  |  |  | 

— US20230364062A1, “METHOD OF TREATING MYELOID MALIGNANCIES” (Yeda Research and Development Co. Ltd., priority 2020, published 2023)
